Experimental data as given in EPA's ToxValDB 9.5 (doi:10.2903/j.efsa.2010.1857).
Converted amounts (≈) assume the structure as drawn.

Legend:
Anas platyrhynchos = conditions: acute; oral; unspecified; mortality
Colinus virginianus = conditions: for LC50: diet
Apis mellifera = conditions: acute; duration: 48 hours; oral; unspecified; mortality
Cyprinus carpio = conditions: chronic/long-term; duration: 21 days; growth
Daphnia magna = conditions: chronic/long-term; duration: 17 days; reproduction
Oncorhynchus mykiss = conditions: acute; duration: 96 hours; mortality
Poecilus cupreus = conditions: not reported; morphology
Rattus norvegicus = conditions: for NOAEL: histopathology: nonneoplastic

CC1=C(C(=O)Nc2ccccc2)S(=O)(=O)CCO1 [Oxycarboxin]
LD50 (Anas platyrhynchos): 1250 mg/kg-day | LC50 (Colinus virginianus; acute, oral, mortality): > 2200 mg/kg-day

CC1=C(C(=O)Nc2ccccc2)SCCO1 [Carboxin]
LD50 (Apis mellifera): > 100 µg/piece | LC50 (Colinus virginianus; acute, oral, mortality): > 985 mg/kg-day | LD50 (Colinus virginianus; acute, oral, mortality): > 2150 mg/kg-day | NOEC (Colinus virginianus; reproduction developmental): 83 mg/kg-day | NOEC (Cyprinus carpio): 0.32 mg/L | NOEC (Daphnia magna): 0.32 mg/L | LC50 (Oncorhynchus mykiss): 2.3 µg/mL (≈ 9.77 µM) | LEL (Poecilus cupreus): 776 mg/kg | LD50 (Rattus norvegicus; acute, oral, mortality): 2590 mg/kg-day | NOAEL (Rattus norvegicus; chronic, duration: 2 years, M): 0.82 mg/kg-day | NOEL (Rattus norvegicus; reproduction developmental, reproduction): 20 mg/kg-day | NOAEL (Rattus norvegicus; subchronic, duration: 90 days, oral): 5.5 mg/kg-day | LC50 (Tagia sp.; acute, duration: 14 days, mortality): > 500 mg/kg | NOEC (Tagia sp.; chronic/long-term, duration: 56 days): 100 mg/kg
